The results in this text go back to ChEMBL document CHEMBL4041541, “Solvent free, catalyst free, microwave or grinding assisted synthesis of bis-cyclic imide derivatives and their evaluation for anticancer activity” (Bioorg Med Chem Lett, 2017).

A value given as a limit tells only on which side of the number the result lay.

The subject of one experiment is T47D. In words: Growth inhibition of human T47D cells at 1 x 10^-5 M after 24 hrs by MTT assay relative to control. It counts as functional. The note with it: read-out: GI.
The test system of experiment [1] is NCI-H522. In words: Growth inhibition of human NCI-H522 cells at 1 x 10^-5 M after 24 hrs by MTT assay relative to control. Type of experiment: functional. The note with it: NCI-H522, 24 h, read-out: GI.
Experiment [2] has as its system HCT-15. In words: Growth inhibition of human HCT15 cells at 1 x 10^-5 M after 24 hrs by MTT assay relative to control. The note with it: HCT-15, 24 h, read-out: GI. Type of experiment: functional.
The next experiment relates to PA-1. In words: Growth inhibition of human PA1 cells at 1 x 10^-5 M after 24 hrs by MTT assay relative to control. It counts as functional. The note with it: PA-1, 24 h, read-out: GI.
The subject of experiment [3] is HepG2. Kind of experiment: Growth inhibition of human HepG2 cells at 1 x 10^-5 M after 24 hrs by MTT assay relative to control. It counts as functional. The note with it: HepG2, 24 h, read-out: GI.
Experiment [4] deals with NCI-H522. Kind of experiment: Growth inhibition of human NCI-H522 cells after 24 hrs by MTT assay. The note with it: NCI-H522, 24 h. Type of experiment: functional, cell-based.
Experiment [5] relates to HCT-15. Kind of experiment: Growth inhibition of human HCT15 cells after 24 hrs by MTT assay. Type of experiment: functional, cell-based. The note with it: HCT-15, 24 h.
Experiment [6] deals with HepG2. Kind of experiment: Growth inhibition of human HepG2 cells after 24 hrs by MTT assay. The note with it: HepG2, 24 h. It counts as functional, cell-based.
The test system of a further experiment is HEK-293T. In words: Growth inhibition of HEK293T cells after 24 hrs by MTT assay. It counts as cell-based. The note with it: Homo sapiens.

Take `O=C1C2CCCCC2C(=O)N1CCCN1CCN(CCCN2C(=O)C3CCCCC3C2=O)CC1` (configuration not stated): the inhibition of growth at 10 µM in the experiment with T47D is 11%; with NCI-H522 [1], 9%; in the experiment on HCT-15 [2], 8%; with PA-1, 6%; with HepG2 [3], 19%.

Consider `C[C@@H]1C[C@@H]([C@H](O)CC2CC(=O)NC(=O)C2)C(=O)[C@@H](C)C1` [CYCLOHEXIMIDE], for which the inhibition of growth at 10 µM in the experiment with T47D amounted to 23%; in the experiment with NCI-H522 [1], 18%; in the experiment on HCT-15 [2], 21%; in the experiment with PA-1, 33%; in the experiment on HepG2 [3] it was 21%. Also, the IC50 in the experiment with NCI-H522 [4] is 62.1 µM; in the experiment with HCT-15 [5], 52.3 µM; with HepG2 [6] it was 55.1 µM; in the experiment with HEK-293T, over 100 µM.

As to `O=C1Cc2ccccc2C(=O)N1CCCN1C(=O)Cc2ccccc2C1=O`, the inhibition of growth at 10 µM with T47D was 11%; in the experiment with NCI-H522 [1] it was 1%; with HCT-15 [2], 7%; in the experiment on PA-1, 15%; in the experiment with HepG2 [3], 5%.

On to `O=C1c2nc[nH]c2C(=O)N1CCCN1CCN(CCCN2C(=O)c3nc[nH]c3C2=O)CC1`, for which the inhibition of growth at 10 µM in the experiment on T47D is 0%; with NCI-H522 [1] it was 2%; in the experiment on HCT-15 [2] it was 0%; in the experiment on PA-1, 0%; in the experiment with HepG2 [3], 1%.

Consider `CC(CN1C(=O)CNCC1=O)N1C(=O)CNCC1=O` (configuration not stated), for which the inhibition of growth at 10 µM is 20% in the experiment on T47D; 16% in the experiment with NCI-H522 [1]; 12% in the experiment on HCT-15 [2]; 3% in the experiment on PA-1; 22% with HepG2 [3].

As to `O=C1c2nccnc2C(=O)N1CCOCCOCCN1C(=O)c2nccnc2C1=O`, the inhibition of growth at 10 µM with T47D amounted to 39%; in the experiment on NCI-H522 [1], 35%; with HCT-15 [2] it was 47%; in the experiment on PA-1 it was 38%; in the experiment on HepG2 [3], 6%.

Consider `O=C1C2CCCCC2C(=O)N1CCCC1OCC2(CO1)COC(CCCN1C(=O)C3CCCCC3C1=O)OC2` (configuration not stated), for which the inhibition of growth at 10 µM worked out at 11% in the experiment on T47D; 28% in the experiment with NCI-H522 [1]; 21% in the experiment on HCT-15 [2]; 15% in the experiment with PA-1; 13% in the experiment on HepG2 [3].

`O=C1C2CC=CCC2C(=O)N1CCCN1CCN(CCCN2C(=O)C3CC=CCC3C2=O)CC1` (configuration not stated): the inhibition of growth at 10 µM with T47D came out at 29%; in the experiment on NCI-H522 [1], 37%; in the experiment with HCT-15 [2], 18%; with PA-1 it was 10%; in the experiment with HepG2 [3], 39%.

As to `O=C1Cc2ccccc2C(=O)N1CCCC1OCC2(CO1)COC(CCCN1C(=O)Cc3ccccc3C1=O)OC2` (configuration not stated), the inhibition of growth at 10 µM with T47D worked out at 1%; with NCI-H522 [1], 0%; in the experiment with HCT-15 [2], 12%; in the experiment on PA-1, 0%; in the experiment with HepG2 [3], 5%.

In the case of `O=C1Cc2ccccc2C(=O)N1CCOCCOCCN1C(=O)Cc2ccccc2C1=O`, the inhibition of growth at 10 µM in the experiment with T47D amounted to 1%; with NCI-H522 [1], 5%; in the experiment with HCT-15 [2] it was 0%; in the experiment with PA-1 it was 0%; in the experiment with HepG2 [3] it was 1%.

As for `O=C1Cc2ccccc2C(=O)N1CCN1C(=O)Cc2ccccc2C1=O`, the inhibition of growth at 10 µM in the experiment with T47D was determined as 8%; in the experiment on NCI-H522 [1] it was 16%; in the experiment with HCT-15 [2] it was 6%; in the experiment on PA-1, 9%; with HepG2 [3], 4%.

Take `O=C1C2CC=CCC2C(=O)N1CCCC1OCC2(CO1)COC(CCCN1C(=O)C3CC=CCC3C1=O)OC2` (configuration not stated): the inhibition of growth at 10 µM in the experiment on T47D was 39%; in the experiment with NCI-H522 [1], 19%; in the experiment on HCT-15 [2] it was 11%; in the experiment on PA-1, 7%; with HepG2 [3], 25%.

As to `O=C1CNCC(=O)N1CCCC1OCC2(CO1)COC(CCCN1C(=O)CNCC1=O)OC2` (configuration not stated), the inhibition of growth at 10 µM in the experiment with T47D was 31%; in the experiment on NCI-H522 [1] it was 25%; with HCT-15 [2], 21%; in the experiment on PA-1, 12%; in the experiment with HepG2 [3] it was 37%.

As for `O=C1CNCC(=O)N1CCCN1CCN(CCCN2C(=O)CNCC2=O)CC1`, the inhibition of growth at 10 µM was determined as 24% in the experiment on T47D; 19% in the experiment with NCI-H522 [1]; 14% in the experiment on HCT-15 [2]; 29% in the experiment with PA-1; 21% in the experiment with HepG2 [3].

As for `O=C1c2nc[nH]c2C(=O)N1CCOCCOCCN1C(=O)c2nc[nH]c2C1=O`, the inhibition of growth at 10 µM came out at 37% in the experiment on T47D; 32% in the experiment with NCI-H522 [1]; 27% with HCT-15 [2]; 19% with PA-1; 49% in the experiment on HepG2 [3].

In the case of `CC(CN1C(=O)Cc2ccccc2C1=O)N1C(=O)Cc2ccccc2C1=O` (configuration not stated), the inhibition of growth at 10 µM with T47D was 26%; with NCI-H522 [1] it was 16%; in the experiment on HCT-15 [2], 11%; in the experiment on PA-1 it was 3%; in the experiment on HepG2 [3] it was 21%.

With `O=c1[nH]cc(F)c(=O)[nH]1` [FLUOROURACIL], the inhibition of growth at 10 µM was found to be 24% in the experiment with T47D; 27% in the experiment on NCI-H522 [1]; 12% with HCT-15 [2]; 7% in the experiment with PA-1; 17% in the experiment with HepG2 [3]. Also, the results for the concentration for half-maximal inhibition (IC50) in the experiment with NCI-H522 [4], in the experiment on HepG2 [6] and in the experiment with HEK-293T were 55.6 µM, 32.9 µM and over 100 µM, respectively.

As to `O=C1CNCC(=O)N1CCN1C(=O)CNCC1=O`, the inhibition of growth at 10 µM was determined as 38% with T47D; 30% in the experiment with NCI-H522 [1]; 30% with HCT-15 [2]; 20% in the experiment on PA-1; 15% in the experiment on HepG2 [3].

Take `O=C1c2nccnc2C(=O)N1CCCN1C(=O)c2nccnc2C1=O`: the inhibition of growth at 10 µM in the experiment with T47D came to 13%; with NCI-H522 [1], 0%; in the experiment with HCT-15 [2], 5%; in the experiment on PA-1, 16%; in the experiment with HepG2 [3] it was 1%.

As to `CC(CN1C(=O)c2nccnc2C1=O)N1C(=O)c2nccnc2C1=O` (configuration not stated), the inhibition of growth at 10 µM in the experiment on T47D stood at 6%; with NCI-H522 [1], 4%; in the experiment on HCT-15 [2], 21%; in the experiment on PA-1, 1%; with HepG2 [3], 1%.

In the case of `O=C1Cc2ccccc2C(=O)N1CCCN1CCN(CCCN2C(=O)Cc3ccccc3C2=O)CC1`, the inhibition of growth at 10 µM with T47D was 5%; in the experiment on NCI-H522 [1], 6%; in the experiment on HCT-15 [2], 1%; in the experiment on PA-1, 0%; with HepG2 [3], 7%.

Take `O=C1CNCC(=O)N1CCCN1C(=O)CNCC1=O`: the inhibition of growth at 10 µM with T47D was found to be 31%; in the experiment with NCI-H522 [1], 30%; in the experiment with HCT-15 [2], 2%; in the experiment with PA-1 it was 19%; with HepG2 [3], 35%.

For `O=C1c2nc[nH]c2C(=O)N1CCCC1OCC2(CO1)COC(CCCN1C(=O)c3nc[nH]c3C1=O)OC2` (configuration not stated), the inhibition of growth at 10 µM in the experiment with T47D was found to be 19%; in the experiment with NCI-H522 [1], 27%; in the experiment with HCT-15 [2], 11%; in the experiment on PA-1, 15%; in the experiment on HepG2 [3] it was 31%.

Consider `O=C1c2nccnc2C(=O)N1CCN1C(=O)c2nccnc2C1=O`, for which the inhibition of growth at 10 µM with T47D worked out at 11%; in the experiment on NCI-H522 [1], 30%; with HCT-15 [2], 39%; with PA-1, 4%; in the experiment on HepG2 [3] it was 7%.

For `CC(CN1C(=O)c2nc[nH]c2C1=O)N1C(=O)c2nc[nH]c2C1=O` (configuration not stated), the inhibition of growth at 10 µM with T47D was determined as 32%; with NCI-H522 [1] it was 3%; in the experiment with HCT-15 [2] it was 30%; in the experiment with PA-1, 20%; in the experiment on HepG2 [3], 36%.

In the case of `O=C1c2nccnc2C(=O)N1CCCN1CCN(CCCN2C(=O)c3nccnc3C2=O)CC1`, the inhibition of growth at 10 µM with T47D came to 15%; in the experiment on NCI-H522 [1], 19%; with HCT-15 [2], 10%; in the experiment with PA-1, 18%; with HepG2 [3] it was 20%.

Turning to `O=C1CNCC(=O)N1CCOCCOCCN1C(=O)CNCC1=O`, the inhibition of growth at 10 µM in the experiment on T47D worked out at 1%; in the experiment with NCI-H522 [1], 3%; with HCT-15 [2], 0%; with PA-1, 0%; in the experiment on HepG2 [3] it was 0%.

Regarding `O=C1c2nc[nH]c2C(=O)N1CCCN1C(=O)c2nc[nH]c2C1=O`, the inhibition of growth at 10 µM with T47D stood at 35%; in the experiment with NCI-H522 [1], 10%; with HCT-15 [2], 21%; in the experiment on PA-1 it was 17%; with HepG2 [3], 34%.
